Test results published in ChEMBL document CHEMBL1201862, “PubChem BioAssay data set” (2004).
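1) Cells in 96-well plates. 2) Compound, 48 h, 5 concentrations. 3) Linear interpolation between surrounding doses. 4) Unreached endpoint = highest concentration. Abbreviation: GI50, concentration required for 50% inhibition of growth.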 Active and inactive are the calls of the source. Cut-off read from the data, not from the text of the source: active = GI50 up to about 1.1 µM and inactive = higher.

Key:
Assay in all cases: NCI anticancer screen, dose series, 48 h
[1] = system: SF-268
[2] = system: SN12C
[3] = system: U-251
[4] = system: UACC-257
[5] = system: A549
[6] = system: OVCAR-5
[7] = system: OVCAR-8
[8] = system: NCI-H460
[9] = system: LOX IMVI
[10] = system: M14
[11] = system: HL-60
[12] = system: HCC 2998
[13] = system: HCT-15
[14] = system: RPMI-8226
[15] = system: OVCAR-4
[16] = system: SK-OV-3
[17] = system: NCI-H226
[18] = system: K562

Row | SMILES | GI50 [1] | GI50 [2] | GI50 [3] | GI50 [4] | GI50 [5] | GI50 [6] | GI50 [7] | GI50 [8] | GI50 [9] | GI50 [10] | GI50 [11] | GI50 [12] | GI50 [13] | GI50 [14] | GI50 [15] | GI50 [16] | GI50 [17] | GI50 [18]
1 | CCCCCC1CC(C(C)=O)CN1c1ccc(F)cc1 (stereo not given) | 32 µM (inactive) | 48.5 µM (inactive) | 41.5 µM (inactive) | 30.5 µM (inactive) | 51.4 µM (inactive) | > 100 µM (inactive) | 32.3 µM (inactive) | 44.4 µM (inactive) | 28 µM (inactive) | 35 µM (inactive) | > 10 µM (inactive) | 38.1 µM (inactive) | 52.8 µM |  |  |  |  | 
2 | COC1=CC(=O)c2ccccc2C1(C)C1=NC(C)(C)CO1 (stereo not given) | > 100 µM (inactive) | > 100 µM (inactive) | > 100 µM (inactive) | > 100 µM (inactive) | > 100 µM (inactive) |  | > 100 µM (inactive) | > 100 µM (inactive) |  | > 100 µM (inactive) | > 100 µM (inactive) |  | > 100 µM | > 100 µM (inactive) | > 100 µM (inactive) | > 100 µM (inactive) | > 100 µM (inactive) | > 100 µM (inactive)
3 | CS(=O)(=O)OCC1=C(COS(C)(=O)=O)C(=O)c2c(O)ccc(O)c2C1=O | > 100 µM (inactive) | > 100 µM (inactive) | > 100 µM (inactive) | > 100 µM (inactive) | > 100 µM (inactive) | > 100 µM (inactive) | > 100 µM (inactive) |  |  | > 100 µM (inactive) | > 100 µM (inactive) | > 100 µM (inactive) | > 100 µM | > 100 µM (inactive) | > 100 µM (inactive) | > 100 µM (inactive) | > 100 µM (inactive) | > 100 µM (inactive)
4 | CC1(C)CCc2cc3c(cc2O1)OC(C)(C)CC3=O | > 100 µM (inactive) | 65.5 µM (inactive) | 90.8 µM (inactive) |  | 75.2 µM (inactive) | 46.8 µM (inactive) | > 100 µM (inactive) | > 100 µM (inactive) | > 100 µM (inactive) | > 100 µM (inactive) | 23.4 µM (inactive) |  | 91.8 µM | > 100 µM (inactive) | 62.8 µM (inactive) | > 100 µM (inactive) | 34.2 µM (inactive) | 44.6 µM (inactive)
5 | CCCCCC/C(CC(=O)CCC(=O)NCCc1ccccc1)=N\NC(=O)c1ccc2ccccc2c1O | 22.6 µM (inactive) | 49.5 µM (inactive) | 37.9 µM (inactive) | 30.1 µM (inactive) | 48.2 µM (inactive) | 21.5 µM (inactive) | 29.4 µM (inactive) | 36.5 µM (inactive) | 17.7 µM (inactive) | 33.3 µM (inactive) | 7.78 µM (inactive) | 53.3 µM (inactive) |  | 46 µM (inactive) | 37.8 µM (inactive) |  | 55 µM (inactive) | 
6 | COc1ccc(/C=N/NC(=O)NCCCN(C)C)cc1 | > 100 µM (inactive) | > 100 µM (inactive) | > 100 µM (inactive) | > 100 µM (inactive) | > 100 µM (inactive) |  | > 100 µM (inactive) | > 100 µM (inactive) | 85.9 µM (inactive) |  | > 100 µM (inactive) |  | > 100 µM |  |  | > 100 µM (inactive) | > 100 µM (inactive) | > 100 µM (inactive)
7 | Nc1nc(Cl)cc(NCCCCCCCCCCCCNc2cc(Cl)nc(N)n2)n1 | 28.2 µM (inactive) | 32.7 µM (inactive) | 0.345 µM (active) | 0.515 µM (active) | 7.45 µM (inactive) |  | 10.1 µM (inactive) | 2.5 µM (inactive) | 0.0869 µM (active) | 38 µM (inactive) | 1.14 µM (inactive) | 38.5 µM (inactive) | 7.93 µM | > 100 µM (inactive) | 4.36 µM (inactive) | 32.4 µM (inactive) | 15 µM (inactive) | 0.0655 µM (active)
